Data from US5395947A, “Platinum(II) complex and processes for preparing the same” (Sunkyong Industries, Ltd., priority 1991, dated 1995).

How the values were obtained:
murine leukemia L1210 = experiment: Antitumor activity test on murine leukemia L1210 in vivo; design: species or system male BDF1 mice; details: days 1, 5, 9
In short: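 Male BDF1 mice (6 weeks, 21±3 g; n=7) received 1×10^6 leukemia cells into the peritoneum on day 0, then test compound suspended or dissolved in 0.5% CMC i.p. on days 1, 5, 9. Activity expressed as T/C %, mean survival treated versus 0.5% CMC-injected controls.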

ICR mice = experiment: Acute toxicity test; type: in vivo; design: Lethality: unit not given here; details: for Lethality: 10080 min
Procedure: 7-week-old ICR mice(male: 34±2 g; female: 31±2 g) were fed with solid food and water under the condition of 23±1° C. temperature and 65±5% humidity before the test.
Each treatment group consisted of 6 mice. The test compounds were administered intraperitoneally.
For 7 days after the administration, the appearance and the fate of the tested animals were recorded. The dead animals were subjected to autopsy and their visible pathological changes were observed. Their viscerals were stored in 10% formalin solution.

[1] = tested on: murine leukemia L1210 cells; experiment: Growth inhibition test on cultured murine leukemia L1210 cells; type: cell-based; details: 48 hours, 37° C., Trypan blue viability
In short: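 Read-out is Trypan blue (0.17%) viability versus compound-free controls. Cells, 1×10^5, were cultured 48 h at 37° C under 5% CO2 in RPMI 1640/10% FCS containing various compound concentrations.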

[2] = Test for water solubility; type: physicochemical; details: water
From the text: 3. Test for water solubility
A standard plot of UV absorbance(220 nm) vs. concentration was made; and employed to determine water-solubility.
The mixture was then passed through a 0.45 micron disposable membrane filter before dilution and UV measurement.

## CCC1OC2C[NH2+][Pt-2]3([NH2+]CC2O1)[O]C(=O)C1(CCC1)C(=O)[O]3 [Example 24, cis-cyclobutane-1,1-dicarboxylato[(4R,5R)-4,5-bis(aminomethyl)-2-ethyl-1,3-dioxolane]platinum(II)]
Murine leukemia L1210; 6.2 mg/kg i.p.
  T/C (%): 122%
Murine leukemia L1210; 12.5 mg/kg i.p.
  T/C (%): 130%
Murine leukemia L1210; 25 mg/kg i.p.
  T/C (%): 193%
Murine leukemia L1210; 50 mg/kg i.p.
  T/C (%): 208%
Murine leukemia L1210; 100 mg/kg i.p.
  T/C (%): 391%
ICR mice; female, 160 mg/kg i.p.
  Number of dead mice for 7 days: 0/6
  Number of dead mice, 1st day: 0/6
ICR mice; female, 208 mg/kg i.p.
  Number of dead mice for 7 days: 0/6
  Number of dead mice, 1st day: 0/6
ICR mice; female, 270 mg/kg i.p.
  Number of dead mice for 7 days: 3/6
  Number of dead mice, 1st day: 0/6
  Number of dead mice, 2nd day: 1/6
  Number of dead mice, 3rd day: 1/5
  Number of dead mice, 5th day: 1/4
  Lethality: 50.0
ICR mice; female, 352 mg/kg i.p.
  Number of dead mice for 7 days: 5/6
  Number of dead mice, 1st day: 0/6
  Number of dead mice, 3rd day: 3/6
  Number of dead mice, 4th day: 2/3
  Lethality: 83.3
ICR mice; female, 457 mg/kg i.p.
  Number of dead mice for 7 days: 6/6
  Number of dead mice, 1st day: 0/6
  Number of dead mice, 2nd day: 4/6
  Number of dead mice, 3rd day: 2/2
  Lethality: 100.0
ICR mice; male, 160 mg/kg i.p.
  Number of dead mice for 7 days: 0/6
  Number of dead mice, 1st day: 0/6
ICR mice; male, 208 mg/kg i.p.
  Number of dead mice for 7 days: 1/6
  Number of dead mice, 1st day: 0/6
  Number of dead mice, 3rd day: 1/6
  Lethality: 16.7
ICR mice; male, 270 mg/kg i.p.
  Number of dead mice for 7 days: 5/6
  Number of dead mice, 1st day: 0/6
  Number of dead mice, 2nd day: 1/6
  Number of dead mice, 3rd day: 2/5
  Number of dead mice, 4th day: 1/3
  Number of dead mice, 5th day: 1/2
  Lethality: 83.3
ICR mice; male, 352 mg/kg i.p.
  Number of dead mice for 7 days: 6/6
  Number of dead mice, 1st day: 1/6
  Number of dead mice, 2nd day: 2/5
  Number of dead mice, 3rd day: 2/3
  Number of dead mice, 6th day: 1/1
  Lethality: 100.0
ICR mice; male, 457 mg/kg i.p.
  Number of dead mice for 7 days: 6/6
  Number of dead mice, 1st day: 0/6
  Number of dead mice, 2nd day: 2/6
  Number of dead mice, 3rd day: 4/6
  Lethality: 100.0
[1]
  IC50 (concentration required for 50% inhibition of growth): 0.55 mg/L
[2]
  Solubility in water: 12.0 mg/mL

## CC1OC2C[NH2+][Pt-2]3([NH2+]CC2O1)[O]C(=O)C1(CCC1)C(=O)[O]3 [Example 22, cis-cyclobutane-1,1-dicarboxylato[(4R,5R)-4,5-bis(aminomethyl)-2-methyl-1,3-dioxolane]platinum(II)]
Murine leukemia L1210; 6.2 mg/kg i.p.
  T/C (%): 125%
Murine leukemia L1210; 12.5 mg/kg i.p.
  T/C (%): 129%
Murine leukemia L1210; 25 mg/kg i.p.
  T/C (%): 247%
Murine leukemia L1210; 50 mg/kg i.p.
  T/C (%): 262%
Murine leukemia L1210; 100 mg/kg i.p.
  T/C (%): 382%
ICR mice; female, 94 mg/kg i.p.
  Number of dead mice for 7 days: 0/6
  Number of dead mice, 1st day: 0/6
ICR mice; female, 123 mg/kg i.p.
  Number of dead mice for 7 days: 1/6
  Number of dead mice, 1st day: 0/6
  Number of dead mice, 4th day: 1/6
  Lethality: 16.7
ICR mice; female, 160 mg/kg i.p.
  Number of dead mice for 7 days: 3/6
  Number of dead mice, 1st day: 0/6
  Number of dead mice, 4th day: 2/6
  Number of dead mice, 5th day: 1/4
  Lethality: 50.0
ICR mice; female, 208 mg/kg i.p.
  Number of dead mice for 7 days: 5/6
  Number of dead mice, 1st day: 0/6
  Number of dead mice, 3rd day: 1/6
  Number of dead mice, 4th day: 4/5
  Lethality: 83.3
ICR mice; female, 270 mg/kg i.p.
  Number of dead mice for 7 days: 6/6
  Number of dead mice, 1st day: 0/6
  Number of dead mice, 2nd day: 4/6
  Number of dead mice, 3rd day: 2/2
  Lethality: 100.0
ICR mice; male, 94 mg/kg i.p.
  Number of dead mice for 7 days: 0/6
  Number of dead mice, 1st day: 0/6
ICR mice; male, 123 mg/kg i.p.
  Number of dead mice for 7 days: 0/6
  Number of dead mice, 1st day: 0/6
ICR mice; male, 160 mg/kg i.p.
  Number of dead mice for 7 days: 4/6
  Number of dead mice, 1st day: 1/6
  Number of dead mice, 4th day: 1/5
  Number of dead mice, 5th day: 1/4
  Number of dead mice, 6th day: 1/3
  Lethality: 66.7
ICR mice; male, 208 mg/kg i.p.
  Number of dead mice for 7 days: 5/6
  Number of dead mice, 1st day: 0/6
  Number of dead mice, 4th day: 4/6
  Number of dead mice, 5th day: 1/2
  Lethality: 83.3
ICR mice; male, 270 mg/kg i.p.
  Number of dead mice for 7 days: 6/6
  Number of dead mice, 1st day: 0/6
  Number of dead mice, 2nd day: 2/6
  Number of dead mice, 3rd day: 4/4
  Lethality: 100.0
[1]
  IC50 (concentration required for 50% inhibition of growth): 0.90 mg/L
[2]
  Solubility in water: 24.9 mg/mL

## CC1(C)O[C@H](CN)[C@@H](CN)O1.O=C1C[O][Pt][O]1 [Example 2, (glycolato-O,O')[(4R,5R)-4,5-bis(aminomethyl)-2,2-dimethyl-1,3-dioxolane]platinum(II)]
Murine leukemia L1210; 3.1 mg/kg i.p.
  T/C (%): 112%
Murine leukemia L1210; 6.2 mg/kg i.p.
  T/C (%): 179%
Murine leukemia L1210; 12.5 mg/kg i.p.
  T/C (%): 201%
Murine leukemia L1210; 25 mg/kg i.p.
  T/C (%): toxic
Murine leukemia L1210; 50 mg/kg i.p.
  T/C (%): toxic
ICR mice; female, 25.0 mg/kg i.p.
  Number of dead mice for 7 days: 0/6
  Number of dead mice, 1st day: 0/6
ICR mice; female, 32.5 mg/kg i.p.
  Number of dead mice for 7 days: 3/6
  Number of dead mice, 1st day: 0/6
  Number of dead mice, 3rd day: 2/6
  Number of dead mice, 4th day: 1/4
  Lethality: 50.0
ICR mice; female, 42.3 mg/kg i.p.
  Number of dead mice for 7 days: 4/6
  Number of dead mice, 1st day: 0/6
  Number of dead mice, 3rd day: 3/6
  Number of dead mice, 4th day: 1/3
  Lethality: 66.7
ICR mice; female, 55.0 mg/kg i.p.
  Number of dead mice for 7 days: 6/6
  Number of dead mice, 1st day: 0/6
  Number of dead mice, 3rd day: 4/6
  Number of dead mice, 4th day: 1/2
  Number of dead mice, 5th day: 1/1
  Lethality: 100.0
ICR mice; female, 71.4 mg/kg i.p.
  Number of dead mice for 7 days: 6/6
  Number of dead mice, 1st day: 0/6
  Number of dead mice, 3rd day: 4/6
  Number of dead mice, 4th day: 2/2
  Lethality: 100.0
ICR mice; male, 25.0 mg/kg i.p.
  Number of dead mice for 7 days: 0/6
  Number of dead mice, 1st day: 0/6
ICR mice; male, 32.5 mg/kg i.p.
  Number of dead mice for 7 days: 3/6
  Number of dead mice, 1st day: 0/6
  Number of dead mice, 3rd day: 1/6
  Number of dead mice, 4th day: 1/5
  Number of dead mice, 5th day: 1/4
  Lethality: 50.0
ICR mice; male, 42.3 mg/kg i.p.
  Number of dead mice for 7 days: 5/6
  Number of dead mice, 1st day: 0/6
  Number of dead mice, 3rd day: 3/6
  Number of dead mice, 4th day: 2/3
  Lethality: 83.3
ICR mice; male, 55.0 mg/kg i.p.
  Number of dead mice for 7 days: 6/6
  Number of dead mice, 1st day: 0/6
  Number of dead mice, 3rd day: 4/6
  Number of dead mice, 4th day: 1/2
  Number of dead mice, 5th day: 1/1
  Lethality: 100.0
ICR mice; male, 71.4 mg/kg i.p.
  Number of dead mice for 7 days: 6/6
  Number of dead mice, 1st day: 0/6
  Number of dead mice, 3rd day: 4/6
  Number of dead mice, 4th day: 2/2
  Lethality: 100.0
[1]
  IC50 (concentration required for 50% inhibition of growth): 0.15 mg/L
[2]
  Solubility in water: 17.5 mg/mL
